In ChEMBL document CHEMBL3758137 (Eur J Med Chem, 2016):

What was measured:
[1] = molecular target: Insulin-like growth factor 1 receptor (Homo sapiens, UniProt P08069); test: Inhibition of recombinant human IGF1R using poly (Glu,Tyr)4:1 as substrate after 60 mins by ELISA
[2] = molecular target: T1, Tyrosine-protein kinase receptor UFO (Homo sapiens, UniProt P30530); test: Inhibition of recombinant human Axl using poly (Glu,Tyr)4:1 as substrate after 60 mins by ELISA
T1 sequence (P30530 whole entry): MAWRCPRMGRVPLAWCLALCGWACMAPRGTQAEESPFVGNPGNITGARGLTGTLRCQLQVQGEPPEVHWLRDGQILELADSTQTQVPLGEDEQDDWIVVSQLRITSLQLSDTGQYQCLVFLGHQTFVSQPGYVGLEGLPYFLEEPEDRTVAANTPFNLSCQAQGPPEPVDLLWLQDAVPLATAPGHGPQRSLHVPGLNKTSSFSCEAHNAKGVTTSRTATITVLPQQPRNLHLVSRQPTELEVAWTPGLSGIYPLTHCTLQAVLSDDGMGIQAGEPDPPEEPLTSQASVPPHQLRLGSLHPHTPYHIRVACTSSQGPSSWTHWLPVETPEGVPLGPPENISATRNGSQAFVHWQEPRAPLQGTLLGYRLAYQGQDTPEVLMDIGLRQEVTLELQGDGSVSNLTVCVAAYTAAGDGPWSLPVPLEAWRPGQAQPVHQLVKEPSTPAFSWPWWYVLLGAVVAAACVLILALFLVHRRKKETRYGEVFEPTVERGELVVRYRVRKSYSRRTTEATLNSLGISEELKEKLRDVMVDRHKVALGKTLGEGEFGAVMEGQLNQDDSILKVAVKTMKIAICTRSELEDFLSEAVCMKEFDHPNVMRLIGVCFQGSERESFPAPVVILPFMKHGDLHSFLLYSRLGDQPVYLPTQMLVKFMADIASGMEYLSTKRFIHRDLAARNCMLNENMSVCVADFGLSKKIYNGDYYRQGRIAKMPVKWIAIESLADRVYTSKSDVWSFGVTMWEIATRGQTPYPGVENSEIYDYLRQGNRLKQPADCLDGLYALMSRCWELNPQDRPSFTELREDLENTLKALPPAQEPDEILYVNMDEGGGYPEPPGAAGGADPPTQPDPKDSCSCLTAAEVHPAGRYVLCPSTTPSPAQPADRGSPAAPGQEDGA

Ephrin type-A receptor 2 = Ephrin type-A receptor 2 (Homo sapiens, UniProt P29317); test: Inhibition of recombinant human EPH-A2 using poly (Glu,Tyr)4:1 as substrate after 60 mins by ELISA
Mus musculus = test: Toxicity in nude mouse xenografted with human EBC1 cells assessed as body weight at 5 and 40 mg/kg, po qd administered for 21 days; format: organism-based; conditions: in vivo, 504 h
Liver microsome = test: Intrinsic clearance in human liver microsomes at 0.1 uM after 7 to 60 mins by LC-MS/MS analysis; format: ADME
[3] = molecular target: Receptor tyrosine-protein kinase erbB-2 (Homo sapiens, UniProt P04626); test: Inhibition of recombinant human ErbB2 using poly (Glu,Tyr)4:1 as substrate after 60 mins by ELISA
Sequence of Receptor tyrosine-protein kinase erbB-2 (P04626 whole entry): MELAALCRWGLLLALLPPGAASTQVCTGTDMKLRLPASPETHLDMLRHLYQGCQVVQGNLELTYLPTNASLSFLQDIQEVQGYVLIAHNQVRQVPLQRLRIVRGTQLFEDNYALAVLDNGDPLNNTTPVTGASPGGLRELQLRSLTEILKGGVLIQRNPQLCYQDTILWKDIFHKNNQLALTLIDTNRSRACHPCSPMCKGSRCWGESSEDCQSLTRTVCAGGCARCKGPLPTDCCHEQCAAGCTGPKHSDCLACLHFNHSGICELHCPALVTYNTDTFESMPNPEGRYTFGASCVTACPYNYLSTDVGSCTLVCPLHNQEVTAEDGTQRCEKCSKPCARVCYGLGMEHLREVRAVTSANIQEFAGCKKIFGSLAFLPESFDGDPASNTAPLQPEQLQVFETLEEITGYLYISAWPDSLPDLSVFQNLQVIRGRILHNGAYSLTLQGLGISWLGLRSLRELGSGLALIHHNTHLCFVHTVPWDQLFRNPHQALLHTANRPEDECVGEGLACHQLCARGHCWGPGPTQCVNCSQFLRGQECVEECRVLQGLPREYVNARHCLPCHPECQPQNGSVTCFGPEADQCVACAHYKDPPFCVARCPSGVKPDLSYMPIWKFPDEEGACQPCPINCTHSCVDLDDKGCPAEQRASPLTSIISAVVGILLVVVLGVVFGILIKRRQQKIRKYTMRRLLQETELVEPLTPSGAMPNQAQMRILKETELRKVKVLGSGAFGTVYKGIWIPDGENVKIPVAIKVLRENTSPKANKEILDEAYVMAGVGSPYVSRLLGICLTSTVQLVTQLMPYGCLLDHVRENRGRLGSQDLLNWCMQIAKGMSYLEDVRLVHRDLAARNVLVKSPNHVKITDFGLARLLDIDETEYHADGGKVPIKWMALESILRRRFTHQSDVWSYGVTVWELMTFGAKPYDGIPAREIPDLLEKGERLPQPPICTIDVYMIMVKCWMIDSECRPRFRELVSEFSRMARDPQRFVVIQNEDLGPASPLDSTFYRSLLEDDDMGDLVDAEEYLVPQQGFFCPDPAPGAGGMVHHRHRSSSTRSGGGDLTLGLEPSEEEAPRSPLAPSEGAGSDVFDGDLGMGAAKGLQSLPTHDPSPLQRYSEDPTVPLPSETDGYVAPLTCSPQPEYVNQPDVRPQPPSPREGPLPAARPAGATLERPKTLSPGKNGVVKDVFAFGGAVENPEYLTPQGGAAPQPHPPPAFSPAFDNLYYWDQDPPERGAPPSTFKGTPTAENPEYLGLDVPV

[4] = molecular target: Vascular endothelial growth factor receptor 2 (Homo sapiens, UniProt P35968); test: Inhibition of recombinant human KDR using poly (Glu,Tyr)4:1 as substrate after 60 mins by ELISA
[5] = Antitumor activity against human EBC1 cells xenografted in nude mouse assessed as tumor growth inhibition at 40 mg/kg, po qd administered for 21 days relative control; format: functional; conditions: EBC-1, po, 504 h, read-out: TGI
[6] = molecular target: Epidermal growth factor receptor (Homo sapiens, UniProt P00533); test: Inhibition of recombinant human EGFR using poly (Glu,Tyr)4:1 as substrate after 60 mins by ELISA
[7] = molecular target: T2, Receptor-type tyrosine-protein kinase FLT3 (Homo sapiens, UniProt P36888); test: Inhibition of recombinant human Flt-3 using poly (Glu,Tyr)4:1 as substrate after 60 mins by ELISA
T2 sequence (P36888 whole entry): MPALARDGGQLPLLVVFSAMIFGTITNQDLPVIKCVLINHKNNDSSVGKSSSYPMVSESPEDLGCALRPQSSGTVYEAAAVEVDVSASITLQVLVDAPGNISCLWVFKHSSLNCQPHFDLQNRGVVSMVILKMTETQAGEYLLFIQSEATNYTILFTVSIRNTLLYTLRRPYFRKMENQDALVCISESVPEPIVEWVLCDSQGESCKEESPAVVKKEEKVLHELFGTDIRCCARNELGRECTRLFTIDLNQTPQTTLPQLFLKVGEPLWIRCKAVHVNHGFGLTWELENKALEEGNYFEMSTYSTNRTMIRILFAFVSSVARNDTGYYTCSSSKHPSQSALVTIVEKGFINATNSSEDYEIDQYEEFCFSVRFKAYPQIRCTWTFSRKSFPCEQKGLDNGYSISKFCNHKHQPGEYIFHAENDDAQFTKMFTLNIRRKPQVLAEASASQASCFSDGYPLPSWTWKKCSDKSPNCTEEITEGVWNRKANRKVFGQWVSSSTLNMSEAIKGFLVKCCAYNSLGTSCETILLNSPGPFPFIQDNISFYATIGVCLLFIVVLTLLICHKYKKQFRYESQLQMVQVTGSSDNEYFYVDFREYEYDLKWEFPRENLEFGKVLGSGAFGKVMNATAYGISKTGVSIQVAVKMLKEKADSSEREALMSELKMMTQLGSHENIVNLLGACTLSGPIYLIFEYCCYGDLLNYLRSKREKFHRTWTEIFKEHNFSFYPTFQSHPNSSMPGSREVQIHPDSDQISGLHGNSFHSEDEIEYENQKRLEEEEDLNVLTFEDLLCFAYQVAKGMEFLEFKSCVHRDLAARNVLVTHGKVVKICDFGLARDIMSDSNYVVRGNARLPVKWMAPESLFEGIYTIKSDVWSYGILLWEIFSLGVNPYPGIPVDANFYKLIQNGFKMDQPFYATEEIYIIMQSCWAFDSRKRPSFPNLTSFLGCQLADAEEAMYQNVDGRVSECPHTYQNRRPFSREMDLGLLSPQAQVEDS

[8] = molecular target: Macrophage-stimulating protein receptor (Homo sapiens, UniProt Q04912); test: Inhibition of recombinant human Ron using poly (Glu,Tyr)4:1 as substrate after 60 mins by ELISA
[9] = molecular target: Proto-oncogene tyrosine-protein kinase Src (Homo sapiens, UniProt P12931); test: Inhibition of recombinant human c-Src using poly (Glu,Tyr)4:1 as substrate after 60 mins by ELISA
Sequence of Proto-oncogene tyrosine-protein kinase Src (P12931 2-536 limits assumed): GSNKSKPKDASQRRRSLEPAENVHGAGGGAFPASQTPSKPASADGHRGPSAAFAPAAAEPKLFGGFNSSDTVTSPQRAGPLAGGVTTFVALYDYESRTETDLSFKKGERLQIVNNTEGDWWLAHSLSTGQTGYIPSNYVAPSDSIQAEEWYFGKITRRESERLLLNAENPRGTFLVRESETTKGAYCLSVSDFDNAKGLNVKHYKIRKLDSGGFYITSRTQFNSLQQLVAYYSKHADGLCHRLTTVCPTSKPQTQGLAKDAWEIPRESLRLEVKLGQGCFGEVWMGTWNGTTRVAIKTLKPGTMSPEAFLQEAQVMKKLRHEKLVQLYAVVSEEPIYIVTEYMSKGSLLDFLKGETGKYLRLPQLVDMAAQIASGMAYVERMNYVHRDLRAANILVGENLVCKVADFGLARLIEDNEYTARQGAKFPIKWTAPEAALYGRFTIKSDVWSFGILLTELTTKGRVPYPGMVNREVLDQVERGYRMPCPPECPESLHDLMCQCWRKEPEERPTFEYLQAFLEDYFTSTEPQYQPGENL

[10] = molecular target: Platelet-derived growth factor receptor alpha (Homo sapiens, UniProt P16234); test: Inhibition of recombinant human PDGFR-alpha using poly (Glu,Tyr)4:1 as substrate after 60 mins by ELISA
Sequence of Platelet-derived growth factor receptor alpha (P16234 whole entry): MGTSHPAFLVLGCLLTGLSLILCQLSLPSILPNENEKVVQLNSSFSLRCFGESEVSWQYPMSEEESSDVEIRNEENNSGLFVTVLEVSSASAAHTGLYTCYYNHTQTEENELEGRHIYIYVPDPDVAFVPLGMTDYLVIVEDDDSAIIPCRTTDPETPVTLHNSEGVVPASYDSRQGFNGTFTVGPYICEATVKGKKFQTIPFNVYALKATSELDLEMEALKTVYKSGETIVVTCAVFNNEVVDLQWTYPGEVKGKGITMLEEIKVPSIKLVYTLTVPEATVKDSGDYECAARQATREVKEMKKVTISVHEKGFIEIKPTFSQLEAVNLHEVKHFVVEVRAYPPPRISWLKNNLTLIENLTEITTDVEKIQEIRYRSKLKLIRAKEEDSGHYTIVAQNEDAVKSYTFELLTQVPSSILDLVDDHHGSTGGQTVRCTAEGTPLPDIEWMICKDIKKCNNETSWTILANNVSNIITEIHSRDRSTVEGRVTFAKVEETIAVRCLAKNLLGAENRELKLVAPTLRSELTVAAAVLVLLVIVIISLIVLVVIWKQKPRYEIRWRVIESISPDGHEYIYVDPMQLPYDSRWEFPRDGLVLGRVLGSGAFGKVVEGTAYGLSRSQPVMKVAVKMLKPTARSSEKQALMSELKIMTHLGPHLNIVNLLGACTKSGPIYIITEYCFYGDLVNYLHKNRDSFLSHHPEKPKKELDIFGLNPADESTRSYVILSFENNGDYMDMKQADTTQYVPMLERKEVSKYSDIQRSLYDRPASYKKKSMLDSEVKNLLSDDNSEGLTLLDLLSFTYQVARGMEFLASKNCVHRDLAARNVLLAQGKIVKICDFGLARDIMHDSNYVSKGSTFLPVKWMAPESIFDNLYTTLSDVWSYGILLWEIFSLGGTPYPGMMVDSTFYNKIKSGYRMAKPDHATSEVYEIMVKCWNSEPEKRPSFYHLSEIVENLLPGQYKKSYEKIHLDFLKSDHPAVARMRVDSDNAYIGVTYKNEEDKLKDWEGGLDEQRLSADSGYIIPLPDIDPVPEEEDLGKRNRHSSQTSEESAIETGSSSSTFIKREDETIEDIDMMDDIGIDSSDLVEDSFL

[11] = molecular target: Tyrosine-protein kinase ABL1 (Homo sapiens, UniProt P00519); test: Inhibition of recombinant human ABL using poly (Glu,Tyr)4:1 as substrate after 60 mins by ELISA

Sequence of Insulin-like growth factor 1 receptor (P08069 31-736 limits assumed): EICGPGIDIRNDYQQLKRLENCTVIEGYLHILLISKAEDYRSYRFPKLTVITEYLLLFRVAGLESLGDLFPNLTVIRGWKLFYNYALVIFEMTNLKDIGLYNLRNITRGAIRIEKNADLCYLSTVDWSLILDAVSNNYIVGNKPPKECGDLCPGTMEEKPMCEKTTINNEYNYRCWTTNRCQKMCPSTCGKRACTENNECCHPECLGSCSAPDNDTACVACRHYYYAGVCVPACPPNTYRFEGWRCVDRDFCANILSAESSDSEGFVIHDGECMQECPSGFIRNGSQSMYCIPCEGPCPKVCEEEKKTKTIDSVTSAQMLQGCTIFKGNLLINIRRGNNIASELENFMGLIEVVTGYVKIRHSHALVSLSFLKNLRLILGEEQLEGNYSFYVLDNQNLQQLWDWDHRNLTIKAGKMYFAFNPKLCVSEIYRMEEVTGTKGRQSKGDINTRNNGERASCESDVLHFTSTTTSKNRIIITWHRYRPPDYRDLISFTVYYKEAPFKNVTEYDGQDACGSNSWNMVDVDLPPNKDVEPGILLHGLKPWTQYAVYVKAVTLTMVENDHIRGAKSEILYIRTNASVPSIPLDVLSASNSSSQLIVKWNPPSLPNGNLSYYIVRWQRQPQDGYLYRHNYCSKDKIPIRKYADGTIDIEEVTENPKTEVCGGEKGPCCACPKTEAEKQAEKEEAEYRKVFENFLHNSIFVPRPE
Sequence of Insulin-like growth factor 1 receptor (P08069 741-1367 limits assumed): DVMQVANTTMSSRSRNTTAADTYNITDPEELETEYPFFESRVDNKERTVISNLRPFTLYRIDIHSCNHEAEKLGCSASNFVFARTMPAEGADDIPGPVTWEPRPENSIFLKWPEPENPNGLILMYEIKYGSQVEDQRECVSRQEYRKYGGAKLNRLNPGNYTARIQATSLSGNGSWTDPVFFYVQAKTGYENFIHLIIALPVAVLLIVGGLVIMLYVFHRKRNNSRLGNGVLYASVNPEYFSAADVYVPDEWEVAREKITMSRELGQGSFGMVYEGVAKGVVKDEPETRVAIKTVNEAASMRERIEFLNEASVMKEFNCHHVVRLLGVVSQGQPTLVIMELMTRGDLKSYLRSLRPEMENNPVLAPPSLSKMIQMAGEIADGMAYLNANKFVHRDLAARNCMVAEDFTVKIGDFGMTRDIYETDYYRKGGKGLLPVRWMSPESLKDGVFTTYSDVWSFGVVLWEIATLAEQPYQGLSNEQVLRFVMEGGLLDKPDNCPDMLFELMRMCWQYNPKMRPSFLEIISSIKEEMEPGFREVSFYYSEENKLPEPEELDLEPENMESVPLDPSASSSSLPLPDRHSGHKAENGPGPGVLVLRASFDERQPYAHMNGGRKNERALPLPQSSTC

- IC50 [1]: > 1000 nM
- IC50 [2]: > 1000 nM
- IC50 (Ephrin type-A receptor 2): > 1000 nM
- CLH (Liver microsome): 9 mL/min/g
- IC50 [3]: > 1000 nM
- IC50 [4]: > 1000 nM
- IC50 [6]: > 1000 nM
- IC50 [7]: > 1000 nM
- IC50 [8]: > 1000 nM
- IC50 [9]: > 1000 nM
- IC50 [10]: > 1000 nM
- IC50 [11]: > 1000 nM
Structure (SMILES): Cn1cc(-c2cnc(Nc3cccc(Cn4nc(-c5cnn(C)c5)ccc4=O)c3)nc2)cn1
- Activity (Mus musculus): Non-toxic
- inhibition in vivo at 40 mg/kg [5]: 68.6%
